According to publication PMC7533260, “Design and tests of prospective property predictions for novel antimalarial 2-aminopropylaminoquinolones” (Journal of Computer-Aided Molecular Design, 2020):

Biological target: T1, s-PfDHODH (Plasmodium falciparum, UniProt Q08210)
T1 sequence (Q08210 158-569 limits assumed): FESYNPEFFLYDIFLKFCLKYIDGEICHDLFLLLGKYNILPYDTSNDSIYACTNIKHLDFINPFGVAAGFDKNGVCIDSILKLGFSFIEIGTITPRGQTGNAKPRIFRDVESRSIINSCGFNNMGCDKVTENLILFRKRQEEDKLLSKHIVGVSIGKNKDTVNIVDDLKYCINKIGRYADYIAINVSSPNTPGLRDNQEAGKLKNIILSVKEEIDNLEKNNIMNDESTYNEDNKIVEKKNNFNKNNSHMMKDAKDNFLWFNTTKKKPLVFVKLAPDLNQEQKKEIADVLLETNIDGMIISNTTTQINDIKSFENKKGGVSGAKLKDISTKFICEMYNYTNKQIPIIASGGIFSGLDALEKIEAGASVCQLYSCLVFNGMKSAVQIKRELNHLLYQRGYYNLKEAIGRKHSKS
Experiment: not given
Design: method as in earlier work
Conditions: literature data used to construct QSAR models; cited from earlier work

| SMILES | IC50 [µM] |
| --- | --- |
| N#C/C(C(=O)Nc1ccc(C(F)(F)F)cc1)=C(/O)C1CC1 [Compound D04] | 92.5 |
| C/C(O)=C(/C#N)C(=O)Nc1ccc(-c2ccccc2)cc1 [Compound D10] | 25.7 |
| C/C(O)=C(/C#N)C(=O)Nc1ccc(-c2ccccc2Cl)cc1Cl [Compound D17] | 4 |
| C/C(O)=C(\C#N)C(=O)Nc1ccc(-c2ccccc2Cl)cc1C(F)(F)F [Compound D18] | 6.2 |
| COc1ccccc1-c1ccc(NC(=O)/C(C#N)=C(\C)O)c(Cl)c1 [Compound D19] | 8.6 |
| C/C(O)=C(/C#N)C(=O)Nc1ccc(-c2cccc(Cl)c2Cl)cc1Cl [Compound D20] | 9.9 |
| C/C(O)=C(/C#N)C(=O)Nc1ccc(-c2c(Cl)cccc2Cl)cc1Cl [Compound D21] | 10.2 |
| C/C(O)=C(/C#N)C(=O)Nc1ccc(-c2cccc(Cl)c2)cc1Cl [Compound D22] | 49.1 |
| C/C(O)=C(\C#N)C(=O)Nc1ccc(-c2cccc(Cl)c2)cc1C(F)(F)F [Compound D23] | 57.2 |
| C/C(O)=C(/C#N)C(=O)Nc1ccc(-c2ccccc2Cl)c(Cl)c1 [Compound D24] | 165 |
| C/C(O)=C(/C#N)C(=O)Nc1ccc(-c2cccc(Cl)c2)c(Cl)c1 [Compound D25] | 237 |
| C/C(O)=C(/C#N)C(=O)Nc1ccc(-c2cccc(Cl)c2Cl)cc1 [Compound D26] | 27.2 |
| C/C(O)=C(/C#N)C(=O)Nc1ccc(-c2ccccc2Cl)cc1 [Compound D27] | 47.4 |
| C/C(O)=C(/C#N)C(=O)Nc1ccc(-c2ccccc2)cc1Cl [Compound D28] | 51.1 |
| CCOc1cccc(-c2ccc(NC(=O)/C(C#N)=C(\C)O)cc2)c1 [Compound D29] | 182 |
| Cc1cc(Nc2ccc(C(F)(F)F)c(F)c2)n2ncnc2n1 [Compound G47] | 0.08 |

Biological target: T1, s-PfDHODH
Experiment: Literature inhibition data for soluble recombinant PfDHODH (s-PfDHODH), dodecylubiquinone as substrate
Format: biochemical
Conditions: not given
From the text: Data on PfDHODH inhibition were collected from the literature for a structurally diverse group of compounds. These included triazolopyrimidines, diphenylureas, and 2-cyano-3-hydroxy acrylanilides, among others. Quantitative data were not available for inhibition of the intact enzyme, which is bound to the mitochondrial membrane by its hydrophobic N-terminus in vivo [16]. […] The very low solubility of CoQ-10 limits its utility in vitro, so an artificial ubiquinone (dodecylubiquinone [DQ]) is usually used as substrate instead.
The IC50 data for these 89 compounds were converted to inhibition constants (Ki’s) by assuming competitive inhibition against DQ and applying the method described by Cheng and Prusoff. Two artificial neural network ensemble (ANNE) regression models were constructed (henceforth referred to as Model A and Model B) using ADMET Modeler™ module of ADMET Predictor® [18]. The models were built on distinct 20% hold-out test sets (see Supplementary Methods for details).

| SMILES | Ki [µM] |
| --- | --- |
| O=C(Nc1ccc(Cl)cc1Cl)c1ccc2ccccc2c1 [Compound B01] | 0.03 |
| O=C(Nc1ccccc1F)c1ccc2ccccc2c1 [Compound B03] | 0.2 |
| Cc1c(C(=O)Nc2cccc(Br)c2)cccc1[N+](=O)[O-] [Compound B04] | 0.02 |
| Cc1c(C(=O)Nc2ccc(F)c(Cl)c2)cccc1[N+](=O)[O-] [Compound B05] | 0.04 |
| Cc1c(C(=O)Nc2ccc(F)c(F)c2)cccc1[N+](=O)[O-] [Compound B07] | 0.14 |
| Cc1c(C(=O)Nc2cccc3ccccc23)cccc1[N+](=O)[O-] [Compound B08] | 0.03 |
| Cc1c(C(=O)Nc2ccc(Cl)c(Cl)c2)cccc1[N+](=O)[O-] [Compound B09] | 0.04 |
| Cc1c(C(=O)Nc2cccc(C(F)(F)F)c2)cccc1[N+](=O)[O-] [Compound B10] | 0.04 |
| O=C(Nc1ccccc1C(F)(F)F)Nc1cccc2ccccc12 [Compound B11] | 0.18 |
| COc1ccccc1NC(=O)Nc1cccc2ccccc12 [Compound B12] | 0.12 |
| O=C(Nc1ccc(Cl)cc1)Nc1cccc2cccnc12 [Compound B13] | 0.54 |
| C/C(O)=C(/C#N)C(=O)Nc1ccc(-c2ccccc2)cc1 [Compound D10] | 3 |
| C/C(O)=C(/C#N)C(=O)Nc1ccc(-c2c(Cl)cccc2Cl)cc1Cl [Compound D21] | 1.2 |
| C/C(O)=C(\C#N)C(=O)Nc1ccc(-c2cccc(Cl)c2)cc1C(F)(F)F [Compound D23] | 6.8 |
| C/C(O)=C(/C#N)C(=O)Nc1ccc(-c2ccccc2Cl)c(Cl)c1 [Compound D24] | 20.5 |
| C/C(O)=C(/C#N)C(=O)Nc1ccc(-c2ccccc2Cl)cc1 [Compound D27] | 5.6 |
| CCOc1cccc(-c2ccc(NC(=O)/C(C#N)=C(\C)O)cc2)c1 [Compound D29] | 21.5 |
| Cc1cc(Nc2ccc(C#N)c(C(F)(F)F)c2)n2ncnc2n1 [Compound G45] | 1.96 |
| Cc1cc(Nc2ccc(C(F)(F)F)c(F)c2)n2ncnc2n1 [Compound G47] | 0.03 |
| CCCNC(=O)c1ccc(-n2c(C)cc3ccccc32)s1 [Compound P03] | 0.02 |
| CCCNC(=O)c1ccc(-n2ccc3ccccc32)s1 [Compound P06] | 0.2 |
| CCOC(=O)C(=CNc1ccc2sc3ccccc3c2c1)C(=O)OCC [He05] | 0.02 |
| CCOC(=O)/C(C#N)=C\Nc1ccc2c(c1)c1ccccc1n2CC [He06] | 0.05 |
| CCOC(=O)C(=CNc1ccc(C)cc1)C(=O)OCC [He08] | 4.6 |
| CCOC(=O)C(=CNc1ccccc1C)C(=O)OCC [He09] | 39.7 |
| CCOC(=O)C(=CNc1ccc2[nH]cnc2c1)C(=O)OCC [He10] | 40.2 |
| CCOC(=O)C(=CNc1cccc(-c2ccccc2)c1)C(=O)OCC [He14] | 10 |
| Cc1cc(Nc2ccc(C(N)=O)cc2)n2ncnc2n1 [Tz13] | 80 |
| Cc1cc(Nc2ccccc2)n2ncnc2n1 [Tz19] | 40 |
| Cc1cc(Nc2ccc3cc4ccccc4cc3c2)n2ncnc2n1 [Tz20] | 0.02 |

Same assay, conditions: converted from literature IC50 assuming competitive inhibition against DQ (Cheng and Prusoff); read-out: PfDHODH Ki

| SMILES | Ki [µM] |
| --- | --- |
| Cc1c(C(=O)Nc2cc(Cl)cc(Cl)c2)cccc1[N+](=O)[O-] [Compound B06] | 0.01 |
| N#C/C(C(=O)Nc1ccc(C(F)(F)F)cc1)=C(/O)C1CC1 [Compound D04] | 11 |
| C/C(O)=C(/C#N)C(=O)Nc1ccc(-c2ccccc2Cl)cc1Cl [Compound D17] | 0.48 |
| C/C(O)=C(\C#N)C(=O)Nc1ccc(-c2ccccc2Cl)cc1C(F)(F)F [Compound D18] | 0.73 |
| COc1ccccc1-c1ccc(NC(=O)/C(C#N)=C(\C)O)c(Cl)c1 [Compound D19] | 1 |
| C/C(O)=C(/C#N)C(=O)Nc1ccc(-c2cccc(Cl)c2Cl)cc1Cl [Compound D20] | 1.2 |
| C/C(O)=C(/C#N)C(=O)Nc1ccc(-c2cccc(Cl)c2)cc1Cl [Compound D22] | 5.8 |
| C/C(O)=C(/C#N)C(=O)Nc1ccc(-c2cccc(Cl)c2)c(Cl)c1 [Compound D25] | 28 |
| C/C(O)=C(/C#N)C(=O)Nc1ccc(-c2cccc(Cl)c2Cl)cc1 [Compound D26] | 3.2 |
| C/C(O)=C(/C#N)C(=O)Nc1ccc(-c2ccccc2)cc1Cl [Compound D28] | 6 |
| Cc1cc(Nc2cccc(F)c2)n2ncnc2n1 [Compound G13] | 3.68 |
| Cc1cc(Nc2cccc(Cl)c2)n2ncnc2n1 [Compound G14] | 0.56 |
| Cc1cccc(Nc2cc(C)nc3ncnn23)c1 [Compound G15] | 1.96 |
| Cc1cc(Nc2cccc(C(F)(F)F)c2)n2ncnc2n1 [Compound G16] | 5.6 |
| Cc1cc(Nc2ccc(F)cc2)n2ncnc2n1 [Compound G17] | 7.6 |
| Cc1cc(Nc2ccc(Cl)cc2)n2ncnc2n1 [Compound G18] | 0.64 |
| Cc1cc(Nc2ccc(Br)cc2)n2ncnc2n1 [Compound G19] | 0.31 |
| Cc1ccc(Nc2cc(C)nc3ncnn23)cc1 [Compound G20] | 1.68 |
| COc1ccc(Nc2cc(C)nc3ncnn23)cc1 [Compound G22] | 1.84 |
| Cc1cc(Nc2ccc(OC(F)(F)F)cc2)n2ncnc2n1 [Compound G23] | 0.48 |
| Cc1cc(Nc2ccc(OC(F)F)cc2)n2ncnc2n1 [Compound G24] | 1.12 |
| Cc1cc(Nc2ccc([N+](=O)[O-])cc2)n2ncnc2n1 [Compound G25] | 1.72 |
| Cc1cc(Nc2ccc(-c3ccccc3)cc2)n2ncnc2n1 [Compound G26] | 2.12 |
| Cc1cc(Nc2ccc(Cc3ccccc3)cc2)n2ncnc2n1 [Compound G27] | 0.88 |
| Cc1cc(Nc2ccc(F)c(F)c2F)n2ncnc2n1 [Compound G31] | 11.6 |
| Cc1cc(Nc2cc(F)c(F)cc2F)n2ncnc2n1 [Compound G32] | 6.8 |

| SMILES | Ki [µM] |
| --- | --- |
| Cc1ccc(Nc2cc(C)nc3ncnn23)c(F)c1 [Compound G36] | 10.8 |
| Cc1cc(Nc2ccc(F)c(F)c2)n2ncnc2n1 [Compound G37] | 3.2 |
| Cc1cc(Nc2cc(F)cc(F)c2)n2ncnc2n1 [Compound G38] | 3.76 |
| Cc1cc(Nc2ccc(F)c(C)c2)n2ncnc2n1 [Compound G40] | 1.84 |
| Cc1cc(Nc2ccc(Cl)c(C(F)(F)F)c2)n2ncnc2n1 [Compound G41] | 0.32 |
| Cc1cc(Nc2ccc(Br)c(C(F)(F)F)c2)n2ncnc2n1 [Compound G42] | 0.18 |
| Cc1cc(Nc2ccc(C)c(C(F)(F)F)c2)n2ncnc2n1 [Compound G43] | 0.62 |
| Cc1cc(Nc2ccc(C)c(C)c2)n2ncnc2n1 [Compound G44] | 0.14 |
| Cc1cc(Nc2ccc(C)c(F)c2)n2ncnc2n1 [Compound G46] | 0.34 |
| Cc1ccccc1/C=C/c1cc(O)c2ccccc2n1 [Compound P01] | 0.4 |
| CCCCCC1CCCc2c1nc1ccccc1c2O (stereo not shown) [Compound P02] | 0.15 |
| O=C(NC1CC1)c1ccc(N2CCSc3ccccc32)s1 [Compound P04] | 0.11 |
| CCCNC(=O)c1ccc(-n2cnc3ccccc32)s1 [Compound P10] | 0.3 |
| CCCNC(=O)c1ccc(-n2c(C)nc3ccccc32)s1 [Compound P11] | 0.07 |
| CCOC(=O)C(=CNc1ccc2[nH]ncc2c1)C(=O)OCC [He07] | 3.2 |
| FC(F)(F)c1cc(Nc2ccc3ccccc3c2)n2ncnc2n1 [Tz08] | 0.08 |
| CCc1cc(Nc2ccc3ccccc3c2)n2ncnc2n1 [Tz09] | 0.08 |
| Cc1nc2ncnn2c(Nc2ccc3ccccc3c2)c1C [Tz10] | 0.06 |
| Cc1cc(N(C)c2ccc3ccccc3c2)n2ncnc2n1 [Tz11] | 1.2 |
| Cc1cc(N(Cc2ccccc2)c2ccc3ccccc3c2)n2ncnc2n1 [Tz12] | 37.2 |
| Cc1cc(Nc2cnc3ccccc3c2)n2ncnc2n1 [Tz14] | 0.68 |
| Cc1cc(Nc2ccc3ncccc3c2)n2ncnc2n1 [Tz15] | 0.48 |
| Cc1cc(Nc2cc3ccccc3cc2O)n2ncnc2n1 [Tz16] | 0.13 |
| Cc1cc(Nc2ccc3c(=O)cc(C)oc3c2)n2ncnc2n1 [Tz17] | 0.8 |
| Cc1cc(Nc2cccc3ccccc23)n2ncnc2n1 [Tz18] | 18 |
